Measured values from patent US7935826B2, “Insecticidal N-substituted (heteroaryl)cycloalkyl sulfoximines” (Dow AgroSciences LLC, priority 2006, dated 2011).

Columns and labels:
Format in all cases: in vivo
[1] = test system: Green Peach Aphid (Myzus persicae); assay: Insecticidal test for green peach aphid in foliar spray assay on cabbage; set-up: key: A: 90-100; B: 80-89; C: 70-79; D: 60-69; E: 50-59; F: Less than 50; G: Inactive; H: Not tested; details: Corrected % Control (Abbott), three days after spray
Experimental: Insecticidal Test for Green Peach Aphid (Myzus persicae) in Foliar Spray Assay Cabbage seedlings grown in 3-inch pots, with 2-3 small (3-5 cm) true leaves, were used as test substrate. The seedlings were infested with 20-50 green peach aphids (wingless adult and nymph) 2-3 days prior to chemical application. Four seedlings were used for each treatment. Compounds (2 mg) were dissolved in 2 ml of acetone:methanol (1:1) solvent, forming stock solutions of 1000 ppm. The stock solutions were diluted 5× with 0.025% Tween 20 in H2O to obtain a solution at 200 ppm. Lower concentrations (50, 12.5, 3.125 and 0.781 ppm) were prepared by making sequential 4× dilutions from the 200 ppm solution with a diluent consisting 80 parts of 0.025% Tween 20 in H2O and 20 parts of acetone:methanol (1:1). A hand-held Devilbiss sprayer was used for spraying a solution to both sides of cabbage leaves until runoff. Reference plants (solvent check) were sprayed with the diluent only. Treated plants were held in a holding room for three days at approximately 23° C. and 40% RH prior to grading. Evaluation was conducted by counting the number of live aphids per plant under a microscope. Insecticidal activity was measured by using Abbott's correction formula: Corrected % Control=100*(X−Y)/X • where X=No. of live aphids on solvent check plants • Y=No. of live aphids on treated plants

[2] = test system: Cotton Aphid (Aphis gossypii); assay: Insecticidal test for cotton aphid in foliar spray assay on squash; set-up: key: A: 90-100; B: 80-89; C: 70-79; D: 60-69; E: 50-59; F: Less than 50; G: Inactive; H: Not tested; details: Corrected % Control (Abbott), 3 days after spray
Experimental: Insecticidal Test for Cotton Aphid (Aphis gossypii) in Foliar Spray Assay Squash with fully expanded cotyledon leaves were trimmed to one cotyledon per plant and infested with cotton aphid (wingless adult and nymph) 1 day prior to chemical application. Each plant was examined before chemical application to ensure proper infestation (ca. 30-70 aphids per plant). Compounds (2 mg) were dissolved in 2 ml of acetone:methanol (1:1) solvent, forming stock solutions of 1000 ppm. The stock solutions were diluted 5× with 0.025% Tween 20 in H2O to obtain a solution at 200 ppm. Lower concentrations (50, 12.5, 3.125, 0.781 and 0.195 ppm) were prepared by making sequential 4× dilutions from the 200 ppm solution with a diluent consisting 80 parts of 0.025% Tween 20 in H2O and 20 parts of acetone:methanol (1:1). A hand-held Devilbiss sprayer was used to apply the spray solutions until runoff to both sides of the squash cotyledon leaves. Four plants (4 replications) were used for each concentration of each compound. Reference plants (solvent check) were sprayed with the diluent only. Treated plants were held in a holding room for 3 days at approximately 23° C. and 40% RH before the number of live aphids on each plant was recorded. Insecticidal activity was measured by Corrected % Control using Abbott's correction formula and presented in Table 1: Corrected % Control=100*(X−Y)/X • where X=No. of live aphids on solvent check plants • Y=No. of live aphids on treated plants

[3] = test system: Brown Planthopper (Nilaparvata lugens); assay: Root-uptake systemic assay on rice, brown planthopper; details: 10 ppm in water of rice seedlings, 3rd instar nymphs, mortality observed at 2 and 6 days (day of tabled value not stated)
Experimental: (§1) Insecticidal Test for Brown Planthopper (Nilaparvata lugens) and Green Leafhopper (Nephotettix sp.) A root-uptake systemic assay was performed on both brown planthopper and green leafhopper. Four-week-old rice seedlings were submerged in 3-cm depth of water in the bottom portion (high 5 cm, diameter 3 cm) of a 2-part glass cylinder (high 18 cm, diameter 3 cm). A metal screen was used to hold the seedlings within the bottom portion. Scotch tape was used to bind the two portions of the cylinder after setting up the seedlings. A metal cap was used to cover the cylinder. There were 4 cylinders for each treatment. The test compound was dissolved in acetone to make a 10,000 ppm stock solution. The stock solution was incorporated at final test concentrations of 10 ppm in the water in which rice seedlings were submerged. Five laboratory-reared 3rd instar nymphs of brown planthopper or green leafhopper were introduced into each cylinder 3 hr after insecticide application. The treated test units were kept in a growth chamber with conditions set as followings: Temperature 28±0.5° C.; Relative humidity 70±0.5%; Photoperiod […].

[4] = test system: Green Leafhopper (Nephotettix sp.); assay: Root-uptake systemic assay on rice, green leafhopper; details: 10 ppm in water of rice seedlings, 3rd instar nymphs, mortality observed at 2 and 6 days (day of tabled value not stated)
Experimental: as §1

[5] = test system: Sweet Potato Whitefly (Bemisia tabaci); assay: Insecticidal test for sweet potato whitefly in foliar spray assay on cotton; details: live large nymphs counted 12 days after spray of egg-infested leaves
From the text: Insecticidal Test for Sweet Potato Whitefly (Bemisia tabaci) in Foliar Spray Assay This test was designed to measure the capability of whitefly eggs and/or young nymphs to develop to large nymphs. Cotton seedlings at the growth stage of one or two expanding true leaf were trimmed so that only the first true leaf remained (cotyledon leaves were also removed). The plants were pre-infested with sweet potato whitefly eggs by keeping plants next to the colony-keeping plants for two days. The infested plants were carefully checked for presence of similar egg density before use in the insecticidal tests. Master solutions of test compounds at 1000 ppm were prepared in acetone: methanol (1:1). The 12.5 ppm spray solutions were then made by diluting 0.188 mL of the master solution with 14.812 ml of 0.025% Tween 20 in water. The lower concentrations were made by diluting the 12.5 ppm spray solution with a diluent consisting 98.75 parts of 0.025% Tween 20 in water and 1.25 parts of acetone:methanol (1:1). The diluent was used as solvent control. The test solutions were sprayed with a hand-held Devilbiss sprayer until runoff to both sides of the infested cotton leaves. Four plants (4 replications) were used for each treatment. Treated plants were held in a holding room for 12 days at approximately 23° C. and 40% RH before evaluation. To evaluate the efficacy of the compounds, the number of live large nymphs in an area of 1 square inch on the lower surface of the treated cotton leaves was counted under a microscope. Insecticidal activity was determined by Corrected % Control using Abbott's correction formula and presented in Table 3: Corrected % Control=100*(X−Y)/X • where X=No. of live large nymphs on solvent check plants • Y=No. of live large nymphs on treated plants

Structure (SMILES)	% Control at ppm, against green peach aphid on cabbage (foliar spray) ([1]; 0.78 ppm)	% Control at ppm, against green peach aphid on cabbage (foliar spray) ([1]; 3.13 ppm)	% Control at ppm, against green peach aphid on cabbage (foliar spray) ([1]; 12.5 ppm)	% Control at ppm, against green peach aphid on cabbage (foliar spray) ([1]; 50 ppm)	% Control at ppm, against green peach aphid on cabbage (foliar spray) ([1]; 200 ppm)	% Control at ppm, against cotton aphid on squash (foliar spray) ([2]; 0.78 ppm)	% Control at ppm, against cotton aphid on squash (foliar spray) ([2]; 3.13 ppm)	% Control at ppm, against cotton aphid on squash (foliar spray) ([2]; 12.5 ppm)	% Control at ppm, against cotton aphid on squash (foliar spray) ([2]; 50 ppm)	% Systemic Control at 10 ppm on rice, Brown Planthopper [3]	% Systemic Control at 10 ppm on rice, Green Leafhopper [4]	% Control at ppm, against sweet potato whitefly on cotton, foliar spray ([5]; 0.781 ppm)	% Control at ppm, against sweet potato whitefly on cotton, foliar spray ([5]; 3.125 ppm)	% Control at ppm, against sweet potato whitefly on cotton, foliar spray ([5]; 12.500 ppm)
CS(=O)(=NC#N)C1(c2ccc(C(F)(F)F)nc2)CC1 (stereo not drawn) [Compound 1, methyl(oxido) {1-[6-(trifluoromethyl)pyridin-3-yl]cyclopropyl}-λ^4-sulfanylidenecyanamide]	F (Less than 50)	B (80-89)	A (90-100)	A (90-100)	A (90-100)	A (90-100)	A (90-100)	A (90-100)	A (90-100)					
CS(=O)(=NC#N)C1(c2ccc(Cl)nc2)CC1 (stereo not drawn) [Compound 2, methyl(oxido) [1-(6-chloropyridin-3-yl)cyclopropyl]-λ^4-sulfanylidenecyanamide]	D (60-69)	A (90-100)				A (90-100)	A (90-100)			E (50-59)	B (80-89)	F (Less than 50)	E (50-59)	C (70-79)
CS(=O)(=NC#N)C1(c2ccc(Cl)nc2)CCC1 (stereo not drawn) [Compound 3, methyl(oxido)[1-(6-chloropyridin-3-yl)cyclobutyl]-λ^4-sulfanylidenecyanamide]									A (90-100)					
CS(=O)(=NC#N)C1(c2ccc(Cl)nc2)CCCC1 (stereo not drawn) [Compound 4, methyl(oxido)[1-(6-chloropyridin-3-yl)cyclopentyl]-λ^4-sulfanylidenecyanamide]									A (90-100)					
CS(=O)(=NC#N)C1(c2ccc(Cl)nc2)CCCCC1 (stereo not drawn) [Compound 5, methyl(oxido)[1-(6-chloropyridin-3-yl)cyclohexyl]-λ^4-sulfanylidenecyanamide]						G	A (90-100)	A (90-100)	A (90-100)					
CS(=O)(=NC#N)C1(c2ccc(Cl)nc2)CCOCC1 (stereo not drawn) [Compound 6, methyl(oxido)[4-(6-chloropyridin-3-yl)tetra hydro-pyran-4-yl]-λ^4-sulfanylidenecyanamide]	G	G	G	G	A (90-100)	A (90-100)	A (90-100)	A (90-100)	A (90-100)					
